Like-named read-outs stand apart in the source and are kept apart here. Each block holds one molecule with its values, some of them ahead of it.
Experiments:
[1] = system: guinea pig gingival fibroblast cells; settings: cited from earlier work
[2] = system: experimental hepatic fibrosis; settings: rats; cited from earlier work
[3] = system: fibroblasts from human hypertrophic scars; settings: cited from earlier work; for proliferation of fibroblasts derived from hypertrophic scars: compound alone; for effect on AT II-stimulated increase in DNA synthesis: cultured fibroblasts, stimulation with AT II
keloid scar = settings: cited from earlier work
[4] = Solubility of the purified solid in organic solvents; assay type: physicochemical
Procedure: (§1) 4 g of captopril in 15 ml of toluene with 0.5 g of Novozyme lipase B from Candida antartica was stirred in a 100 ml round bottom flask fitted with a drying tube (containing 3 Å molecular sieves and indicator silica gel) for 48 hours at 110° C. using a hotplate and magnetic stirrer. 50 ml of THF was then added and the enzyme was removed by filtration.
as §1, with “captopril lactone” for “captopril”

dermal healing = settings: by reducing fibrosis and improving collagen remodelling; cited from earlier work
hypertrophied scars = settings: topical application, animal model of pathologic scarring; cited from earlier work
[5] = phenytoin- or nifedipine-induced gingival fibroblasts

Molecule: O=C1NC(=O)C(c2ccccc2)(c2ccccc2)N1 [phenyloin]
proliferation of gingival fibroblast cells ([1]; guinea pig gingival fibroblast cells): induced proliferation

Molecule: CCCCC(=O)N(Cc1ccc(-c2ccccc2-c2nnn[nH]2)cc1)[C@H](C(=O)O)C(C)C [valsartan]
progression of experimental hepatic fibrosis [2]: ameliorate progression
proliferation of fibroblasts derived from hypertrophic scars [3]: did not influence
effect on AT II-stimulated increase in DNA synthesis [3]: inhibited

Molecule: CCOC(=O)[C@H](CCc1ccccc1)N[C@@H](C)C(=O)N1CCC[C@H]1C(=O)O [enalapril]
keloid scar outcome (keloid scar; first patient (co-author), 10 mg once daily): rapidly improved
keloid scar outcome (keloid scar; person with diabetes, same low dose, after six months of therapy): marked improvement

solubility in THF [4]: freely soluble
solubility in chloroform [4]: freely soluble
solubility in methanol [4]: freely soluble
Molecule: C[C@@H]1CSC(=O)[C@@H]2CCCN2C1=O [captopril lactone]

Molecule: Ang(1-7): angiotensin peptide Ang(1-7) (DRVYIHP; Angiotensin 1-7; UniProt P01019 25-31, looked up, fragment)
dermal healing following wounding (dermal healing): accelerate dermal healing

Molecule: Cc1cc(Cn2cnc3c2C[C@@H](C(=O)O)N(C(=O)C(c2ccccc2)c2ccccc2)C3)ccc1N(C)C [PD123319]
proliferation of fibroblasts derived from hypertrophic scars [3]: did not influence
effect on AT II-stimulated increase in DNA synthesis [3]: augmented

solubility in THF [4]: freely soluble
solubility in chloroform [4]: freely soluble
solubility in methanol [4]: freely soluble
Molecule: C[C@H](CS)C(=O)N1CCC[C@H]1C(=O)O [captopril]
formation of hypertrophied scars (hypertrophied scars): prevented the formation of hypertrophied scars
development of induced proliferation [1, 5]: inhibited the development of proliferation
immunostaining intensities of immunoreactive angiotensin II [1, 5]: reduced these enhanced immunostaining intensities to control levels

Molecule: CCC[C@H](N[C@@H](C)C(=O)N1[C@H](C(=O)O)C[C@@H]2CCCC[C@@H]21)C(=O)OCC [perindopril]
progression of experimental hepatic fibrosis [2]: ameliorate progression

From patent US20120183493A1, “NOVEL POLYMERS” (PharmaPatents Global Ltd., priority 2009, published 2012)
